# Starred links: 1 amine or outer side, 2 acyl side, 3 side chain; linkers in the order of their positions; H or OH if unused. Non-standard residues stand in square brackets, D forms with d. Residues, ends and D or L forms follow the SMILES beside them. X1 = O=C(CCc1ccccc1-c1cccc(CCN[*:1])c1)[*:2]; Orn = NCCC[C@H](N)C(=O)O
# Legend:
# [1] = Far-UV circular dichroism studies of peptide folding (random coil vs β-sheet); format: physicochemical
# Procedure: Heptapeptide A has an -amino acid sequence homologous to a 4-(2-aminoethyl)-6-dibenzofuranpropionic acid-based heptapeptide studied previously, allowing comparsion of the efficacy of the biphenyl- and dibenzofuran-based amino acids as nucleators in a momologous α-aminoacid sequence. Peptide B, having a Phe in place of Leu-3, was prepared to test the feasibility of using an aromatic-aromatic interaction to stabilize the hydrophobic cluster and facilitate β-sheet folding. In peptide C, ornithine-2 was replaced with Glu to probe the effect of an addition long-range residue-residue electrostatic interaction (salt bridge) on β-sheet stability in the context of a heptapeptide.
# The high charge density on peptides D and E should prevent the favorable strand-strand interactions required for sheet formation at low pH. The removal of two or more of the charges on the Lys ε-ammonium groups effected by increasing the pH is expected to facilitate intramolecular folding followed by self-assembly. A leucine was employed as one of the flanking residues in these peptides instead of valine because the increased side chain flexibility should maximize packing interactions required for hydrophobic cluster formation. […] Peptide E was identical to peptide D except that it incorporated residue 2A in place of residue 1A. […] Peptide F was prepared to probe the importance of hydrophobic cluster formation in β-sheet folding mediated by residue 1A. The flanking hydrophobic residues in peptide D were replaced with hydrophilic lysine residues in peptide F while maintaining a highly momologous amino acid composition and an amphiphilic periodicity of 2A.
# [2] = Analytical equilibrium ultracentrifugation (solution molecular weight, quaternary structure)
# [3] = Amide proton/deuterium exchange studies by NMR; format: physicochemical; details: for rates of amide proton/deuterium exchange of the Leu and Val residues flanking 1 relative to the remaining residues: peptide A 3.0-3.3 mM, pH 3.4-3.6, peptide D 2.5-2.9 mM, pH 4.1-5.1
# Procedure: Information concerning the hydrogen-bonding network within a peptide containing residue 1A in aqueous solution was obtained from amide exchange studies of peptide A (3.0-3.3 mM, pH 3.4-3.6) and peptide D (2.5-2.9 mM, pH 4.1-5.1) where peptides A and D appear to be unstructured by far-UV CD.
# Amide exchange studies at pH 3.2 were used to examine the hydrogen-bonding properties of peptide G which is expected to be partially folded on the basis of the studies discussed above.
compound,measurement,setting,value
Lys Val N--Me--Leu Val Lys Leu 1A Val Lys Val N--Me--Leu Val Lys [Peptide G],association state by concentration dependent far-UV CD,"[1]; 0.015-0.4 mM, pH 7, mean residue ellipticity at 225 nm constant",monomeric
same,pH dependence of far-UV CD spectra,[1]; 25° C.,little dependence on pH
same,structure by far-UV CD,[1]; 25° C.,both random coil and β-sheet structure
same,aggregation upon heating,[1]; upon heating,does not aggregate
same,change of structure upon heating (far-UV CD),[1]; upon heating,increase in β-sheet structure
same,observed solution molecular weight (expected monomer 1644),"[2]; 0.11 mM, pH 6.8",1600±80
same,association state by analytical equilibrium ultracentrifugation,[2]; within the concentration and pH ranges studied,monomeric
same,"rates of amide proton exchange of Leu-6, Val-8, Val-4 and Val-10 relative to the remaining residues",[3]; pH 3.2,significantly slower
"CC(C)C[C@H](NC(=O)[C@H](CCCCN)NC(=O)[C@@H](NC(=O)[C@H](CCCCN)NC(=O)[C@@H](NC(=O)[C@@H](N)CCCCN)C(C)C)C(C)C)C(=O)NCCc1cccc(-c2ccccc2CCC(=O)N[C@H](C(=O)N[C@@H](CCCCN)C(=O)N[C@H](C(=O)N[C@@H](CCCCN)C(=O)N[C@H](C(=O)N[C@@H](CCCCN)C(N)=O)C(C)C)C(C)C)C(C)C)c1 [Peptide D, Lys Val Lys Val Lys Leu 1A Val Lys Val Lys Val Lys] (H-KVKVKL[X1]VKVKVK-NH2)",rates of amide proton/deuterium exchange of the Leu and Val residues flanking 1 relative to the remaining residues,[3],at least an order of magnitude slower
"CC(C)C[C@H](NC(=O)[C@H](CCCN)NC(=O)[C@@H](NC(=O)CCc1ccccc1-c1cccc(CCNC(=O)[C@H](CC(C)C)NC(=O)[C@H](CCCN)NC(=O)[C@@H](N)C(C)C)c1)C(C)C)C(N)=O [A, Val Orn Leu 1A Val Orn Leu] (H-V[Orn]L[X1]V[Orn]L-NH2)",rates of amide proton/deuterium exchange of the Leu and Val residues flanking 1 relative to the remaining residues,[3],at least an order of magnitude slower

# Source: US6034211A, “β-sheet nucleating peptidomimetics” (priority 1996, dated 2000)
